Assays:
Assay type in all cases: functional, Homo sapiens
SH-SY5Y [1] = test: Ability to induce neurite outgrowth in SH-SY5Y cells measured as percentage of neurite bearing cells/total cells at 118.8 uM; Range is 5-20%
SH-SY5Y [2] = test: Ability to induce neurite outgrowth in SH-SY5Y cells measured as percentage of neurite bearing cells/total cells at 25.4 uM; Range is 5-20%
SH-SY5Y [3] = test: Ability to induce neurite outgrowth in SH-SY5Y cells measured as percentage of neurite bearing cells/total cells at 59.4 uM
SH-SY5Y [4] = test: Ability to induce neurite outgrowth in SH-SY5Y cells measured as percentage of neurite bearing cells/total cells at 29.5 uM; Range is 5-20%
SH-SY5Y [5] = test: Ability to induce neurite outgrowth in SH-SY5Y cells measured as percentage of neurite bearing cells/total cells at 98.8 uM; Range is 5-20%
SH-SY5Y [6] = test: Ability to induce neurite outgrowth in SH-SY5Y cells measured as percentage of neurite bearing cells/total cells at 17.8 uM; Range is 20-40%

## CCCCCCCCCCCCCCCCCCN1C(=O)C(C(C)=O)=C(C)C1(C)O (stereo unspecified)
SH-SY5Y [1]
  Neurite bearing cells/total cells: 20%

## CCCCCCCCCCCCCCCCN1C(=O)C(C(C)=O)=C(C)C1(C)O (stereo unspecified)
SH-SY5Y [2]
  Neurite bearing cells/total cells: 20%

## CCCCCCCCCCCCCCCCCCOC1(C)NC(=O)C(C(C)=O)=C1C (stereo unspecified)
SH-SY5Y [3]
  Neurite bearing cells/total cells: >40%

## CCCCCCCCCCCCN1C(=O)C(C(C)=O)=C(C)C1(C)O (stereo unspecified)
SH-SY5Y [4]
  Neurite bearing cells/total cells: 20%

## CCCCCCOC1(C)NC(=O)C(C(C)=O)=C1C (stereo unspecified)
SH-SY5Y [5]
  Neurite bearing cells/total cells: 20%

## CCCCCCCCN1C(=O)C(C(C)=O)=C(C)C1(C)O (stereo unspecified)
SH-SY5Y [6]
  Neurite bearing cells/total cells: 40%
